From US20210317141A1, “OXOPYRIDO[1,2-A]PYRIMIDINE COMPOUNDS FOR THE TREATMENT AND PROPHYLAXIS OF BACTERIAL INFECTION” (Hoffmann-La Roche Inc., priority 2018, published 2021)
In brackets after ≈: the same amount, converted by molar mass.

What was measured:
[1] = Cytotoxicity assay (HepG2, CellTiter-Blue); assay type: cell-based; settings: human, HepG2 cells, 3 days treatment
Experimental: The cytotoxicity of compounds of present invention was assessed by HepG2 assay. HepG2 cells (ATCC HB-8065™) were seeded into 96-well plates (1.2×10^4 cells per well) and treated with compounds for 3 days, cell viability was measured at day 3 post compound treatment using the CellTiter-Blue® Cell Viability Assay (Promega, Cat. No. G8082). 20 μL of Cell titer blue buffer were added to each well of the cells, incubated for 3 hours at 37° C., and the fluorescence value was measured by a plate reader (Molecular Device SpectraMax M2). The CC50 value of each compound is plotted with GraphPad Prism using four parameter logistic equation.

[2] = Lyophilisation solubility assay (LYSA); assay type: physicochemical; settings: aqueous buffer, thermodynamic from solid; 0.05 M phosphate buffer, pH 6.5; * = detection limit
Experimental: The solubility of compounds of present invention was assessed by LYSA assay. Samples were prepared in duplicate from 10 mM DMSO stock solutions (20 μL) diluted in 30 μL pure DMSO. After evaporation of DMSO with a centrifugal vacuum evaporator, the residue was dissolved in 0.05 M phosphate buffer (150 μL, pH 6.5), stirred for one hour and shook for two hours. After one night, the solution was filtered using a microtiter filter plate. Then the filtrate and its 1/10 dilution were analyzed by HPLC-UV. In addition, a four-point calibration curve was prepared from the 10 mM stock solutions and used for the solubility determination of the compounds.

[3] = tested on: E. coli (BW25113); test: 50% growth inhibitory concentration (IC50) determination assay, E. coli; assay type: cell-based; settings: Escherichia coli, growth inhibition, Iso-Sensitest broth, OD 600 nm over 16 h, 35±2° C., read-out: IC50 (μM) E. coli K12 BW25113
Experimental: (§1) The in vitro antimicrobial activity of the compounds against E. coli (BW25113, obtained from Coli Genetic Stock Center, #7636) and K. pneumoniae (ATCC10031) was determined according to the following procedure:
(§2) The assay used a 10-points Iso-Sensitest broth medium to measure quantitatively the in vitro activity of the compounds against E. coli BW25113 and K. pneumoniae ATCC 10031.
(§3) Stock compounds in DMSO were serially two-fold diluted (range from 50 to 0.097 μM final concentration) in 384 wells microtiter plates and inoculated with 49 μL the bacterial suspension in Iso-Sensitest broth medium to have a final cell concentration of ˜5×10^5 CFU/mL in a final volume/well of 50 μL/well. Microtiter plates were incubated at 35±2° C.
(§4) Bacterial cell growth was determined with the measurement of optical density at k=600 nm each 20 minutes over a time course of 16 h.
(§5) Growth inhibition was calculated during the logarithmic growth of the bacterial cells with determination of the concentration inhibiting 50% (IC50) of the growth.

[4] = tested on: E. coli (ATCC 25922); test: Minimal Inhibitory Concentration (MIC) assay; assay type: cell-based; settings: Escherichia coli, ATCC25922; CAMHB, 20 hours at 35° C.; read-out: MIC (μg/mL) E. coli ATCC 25922
Experimental: The in vitro potency of compounds to inhibit E. coli (ATCC 25922) growth was assessed by MIC (Minimal Inhibitory Concentration) assay. Samples were prepared from 10 mM DMSO stock solutions. After serial 2-fold dilution in DMSO in a master plate (Greiner, Cat No: 651201), 180 μL sterile distilled water was added to 20 μL each aliquot of the samples. Then […], diluted compounds were transferred into a new assay plate (Costar, 3599).
The growth medium […] Mueller Hinton Broth (CAMHB) was prepared by adding the 20 mg per liter CaCl2) and 20 mg per liter MgCl2 into the MHB medium (Jianglai Company, sterilized).
Vials of each of the test microorganisms were maintained frozen in the vapor phase of a liquid nitrogen freezer. Took out the bacteria E. coli ATCC 25922 (KWIKSTIK, 0335K) from liquid nitrogen freezer, thawed it in room temperature, and diluted the bacterial in the CAMHB medium to achieve a final inoculum of 5×10^5 CFU/mL. 90 μL CAMHB with bacteria was dispensed to the assay plate and pipetted 5 times.
Then the assay plates were incubated for 20 hours at 35° C. in ambient air. Following incubation, the MIC (μg/mL), the lowest concentration of drug that inhibits visible growth of the microorganism was read and recorded throw the microscope.

[5] = tested on: K. pneumoniae (ATCC10031); test: 50% growth inhibitory concentration (IC50) determination assay, K. pneumoniae; assay type: cell-based; settings: Klebsiella pneumoniae, growth inhibition, Iso-Sensitest broth, OD 600 nm over 16 h, * = detection limit
Experimental: as §1, §2, §3, §4, §5

Structure (SMILES) | CC50 at 3 days [1] [nM] | solubility thermodynamic [2] [µg/mL] | IC50 [3] [µM] | MIC [4] [µg/mL] | IC50 [5] [µM]
CNc1cc(F)c(F)c2c1[nH]c1ncc(-c3ccc4ncc(C(=O)O)c(=O)n4c3)c(N(C)C)c12 [Example 1.01, 7-[4-(Dimethylamino)-5,6-difluoro-8-(methylamino)-9H-pyrido[2,3-b]indol-3-yl]-4-oxo-pyrido[1,2-a]pyrimidine-3-carboxylic Acid] | 45900 | 30 (≈ 64.6 µM) | 0.906 | 0.0183 (≈ 0.0394 µM) | –
CNc1cc(F)c(F)c2c1[nH]c1ncc(-c3cc(OC)c4ncc(C(=O)O)c(=O)n4c3)c(N(C)C)c12 [Example 1.03, 7-[4-(Dimethylamino)-5,6-difluoro-8-(methylamino)-9H-pyrido[2,3-b]indol-3-yl]-9-methoxy-4-oxo-pyrido[1,2-a]pyrimidine-3-carboxylic acid] | > 100000 | 54 (≈ 109 µM) | 2.71 | 0.682 (≈ 1.38 µM) | 0.114
CNc1cc(F)cc2c1[nH]c1ncc(-c3cc(C)c4ncc(C(=O)O)c(=O)n4c3)c(N(C)C)c12 [Example 1.05, 7-[4-(Dimethylamino)-6-fliioro-8-(methylamino)-9H-pyrido[2,3-b]indol-3-yl]-9-methyl-4-oxo-pyrido[1,2-a]pyrimidine-3-carboxylic acid] | 34000 | – | 2.06 | 0.576 (≈ 1.25 µM) | 0.221
CNc1cc(F)c(F)c2c1[nH]c1ncc(-c3ccc4ncc(C(=O)O)c(=O)n4c3)c(N(C)CC(F)(F)F)c12 [Example 1.09, 7-(5,6-Difluoro-4-(methyl(2,2,2-trifluoroethyl)amino)-8-(methylamino)-9H-pyrido[2,3-b]indol-3-yl)-4-oxo-4H-pyrido[1,2-a]pyrimidine-3-carboxylic acid] | 33400 | – | 2.57 | 0.808 (≈ 1.52 µM) | 0.284
CNc1c(F)c(F)cc2c1[nH]c1ncc(-c3ccc4ncc(C(=O)O)c(=O)n4c3)c(N(C)C)c12 [Example 1.12, 7-(4-(Dimethylamino)-6,7-difluoro-8-(methylamino)-9H-pyrido[2,3-b]indol-3-yl)-4-oxo-4H-pyrido[1,2-a]pyrimidine-3-carboxylic] | 29900 | – | 0.442 | 0.0212 (≈ 0.0456 µM) | ≤ 0.098
CNc1cc(F)c(F)c2c1[nH]c1ncc(-c3cc(CN(C)C)c4ncc(C(=O)O)c(=O)n4c3)c(N3CCOCC3)c12 [Example 1.14, 7-(5,6-Difluoro-8-(methylamino)-4-morpholino-9H-pyrido[2,3-b]indol-3-yl)-9-((dimethylamino)methyl)-4-oxo-4H-pyrido[1,2-a]pyrimidine-3-carboxylic acid] | > 100000 | 315 (≈ 559 µM) | 8.58 | – | 0.197
CNc1cc(F)c(F)c2c1[nH]c1ncc(-c3ccc4ncc(C(=O)O)c(=O)n4c3)c(N3CCC(F)(CN(C)C)C3)c12 (stereo not drawn) [Example 1.18, 7-(4-(3-((Dimethylamino)methyl)-3-fluoropyrrolidin-1-yl)-5,6-difluoro-8-(methylamino)-9H-pyrido[2,3-b]indol-3-yl)-4-oxo-4H-pyrido[1,2-a]pyrimidine-3-carboxylic acid] | > 100000 | 200 (≈ 354 µM) | – | 0.398 (≈ 0.704 µM) | –
CNc1cc(F)c(F)c2c1[nH]c1ncc(-c3ccc4ncc(C(=O)O)c(=O)n4c3)c(N(C)CCOC)c12 [Example 1.24, 7-(5,6-Difluoro-4-((2-methoxyethyl)(methyl)amino)-8-(methylamino)-9H-pyrido[2,3-b]indol-3-yl)-4-oxo-4H-pyrido[1,2-a]pyrimidine-3-carboxylic acid] | 71000 | 22 (≈ 43.3 µM) | 2.23 | – | 0.105
CNc1c(F)c(F)cc2c1[nH]c1ncc(-c3ccc4ncc(C(=O)O)c(=O)n4c3)c(N3CCC[C@H]3CN(C)C)c12 [Example 1.26, (S)-7-(4-(2-((Dimethylamino)methyl)pyrrolidin-1-yl)-6,7-difluoro-8-(methylamino)-9H-pyrido[2,3-b]indol-3-yl)-4-oxo-4H-pyrido[1,2-a]pyrimidine-3-carboxylic acid] | > 100000 | > 770 | – | – | –
CCNc1cc(F)cc2c1[nH]c1ncc(-c3ccn4c(=O)c(C(=O)O)cnc4c3)c(-n3ccc(C(F)(F)F)n3)c12 [Example 1.31, 8-[8-(Ethylamino)-6-fluoro-4-[3-(trifluoromethyl)pyrazol-1-yl]-9H-pyrido[2,3-b]indol-3-yl]-4-oxo-pyrido[1,2-a]pyrimidine-3-carboxylic acid] | 30800 | – | – | – | –
CNc1cc(F)cc2c1[nH]c1ncc(-c3ccc4ncc(C(=O)O)c(=O)n4c3)c(C#N)c12 [Example 1.34, 7-[4-Cyano-6-fluoro-8-(methylamino)-9H-pyrido[2,3-b]indol-3-yl]-4-oxo-pyrido[1,2-a]pyrimidine-3-carboxylic acid] | > 100000 | – | – | 0.364 (≈ 0.85 µM) | –
CNc1cc(F)c(F)c2c1[nH]c1ncc(-c3cc(CN4CCOCC4)c4ncc(C(=O)O)c(=O)n4c3)c(N(C)C)c12 [Example 2.01, 7-[4-(Dimethylamino)-5,6-difluoro-8-(methylamino)-9H-pyrido[2,3-b]indol-3-yl]-9-(morpholinomethyl)-4-oxo-pyrido[1,2-a]pyrimidine-3-carboxylic Acid] | – | 36 (≈ 63.9 µM) | 0.523 | 0.0223 (≈ 0.0396 µM) | ≤ 0.098
CNc1cc(F)c(F)c2c1[nH]c1ncc(-c3cc(CN(C)CCOC)c4ncc(C(=O)O)c(=O)n4c3)c(N(C)C)c12 [Example 2.02, 7-[4-(Dimethylamino)-5,6-difluoro-8-(methylamino)-9H-pyrido[2,3-b]indol-3-yl]-9-[[2-methoxyethyl(methyl)amino]methyl]-4-oxo-pyrido[1,2-a]pyrimidine-3-carboxylic acid] | – | 255 (≈ 451 µM) | 0.738 | 0.0996 (≈ 0.176 µM) | ≤ 0.098
CNc1cc(F)c(F)c2c1[nH]c1ncc(-c3cc(CN4CCCC4)c4ncc(C(=O)O)c(=O)n4c3)c(N(C)C)c12 [Example 2.03, 7-[4-(Dimethylamino)-5,6-difluoro-8-(methylamino)-9H-pyrido[2,3-b]indol-3-yl]-4-oxo-9-(pyrrolidin-1-ylmethyl)pyrido[1,2-a]pyrimidine-3-carboxylic acid] | – | 51 (≈ 93.1 µM) | 0.748 | 0.194 (≈ 0.354 µM) | ≤ 0.098
CNc1cc(F)c(F)c2c1[nH]c1ncc(-c3cc(CN4CCOCC4)c4ncc(C(=O)O)c(=O)n4c3)c(N3CCCC3)c12 [Example 2.04, 7-[5,6-Difluoro-8-(methylamino)-4-pyrrolidin-1-yl-9H-pyrido[2,3-b]indol-3-yl]-9-(morpholinomethyl)-4-oxo-pyrido[1,2-a]pyrimidine-3-carboxylic acid] | – | 91 (≈ 154 µM) | 1.21 | 0.0432 (≈ 0.0733 µM) | 0.22
CNc1cc(F)cc2c1[nH]c1ncc(-c3ccc4ncc(C(=O)O)c(=O)n4c3)c(N3CCC(F)(F)C3)c12 [Example 2.05, 7-(4-(3,3-Difluoropyrrolidin-1-yl)-6-fluoro-8-(methylamino)-9H-pyrido[2,3-b]indol-3-yl)-4-oxo-4H-pyrido[1,2-a]pyrimidine-3-carboxylic acid] | 31800 | – | – | – | –
